Source: patent US5599811A, “Benzothiazine dioxides as endothelin antagonists” (Warner-Lambert Company, priority 1995, dated 1997)
Like-named read-outs stand apart in the source and are kept apart here. Where a SMILES comes first, the peptide text is derived from it. [ ]: non-standard residue; d: D form.

Columns and labels:
[1] = test system: basilar artery; details: rabbits with SAH; cited from earlier work
[2] = test system: congestive heart failure; details: rat, in vivo; cited from earlier work
[3] = molecular target: T1, recombinant human ETA R (Homo sapiens, UniProt P25101); type: binding; details: [125I]-ET-1 40 pM, 2 hours at 37° C.; read-out: HERBAA IC50
T1 construct: expressed in transfected cells; host or cells: Ltk- cells
T1 sequence (P25101 21-427): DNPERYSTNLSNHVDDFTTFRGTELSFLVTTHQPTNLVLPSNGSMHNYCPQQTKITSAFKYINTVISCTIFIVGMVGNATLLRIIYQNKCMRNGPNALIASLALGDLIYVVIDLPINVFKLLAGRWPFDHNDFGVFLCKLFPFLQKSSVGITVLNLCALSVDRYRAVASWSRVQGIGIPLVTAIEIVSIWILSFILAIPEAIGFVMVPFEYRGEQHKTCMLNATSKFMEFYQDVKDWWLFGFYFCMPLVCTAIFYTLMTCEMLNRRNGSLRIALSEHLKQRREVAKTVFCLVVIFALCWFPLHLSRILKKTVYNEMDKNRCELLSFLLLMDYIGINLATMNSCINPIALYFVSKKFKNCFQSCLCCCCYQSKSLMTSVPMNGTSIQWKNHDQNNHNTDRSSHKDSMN
Experimental: (§1) The compounds of Formula I are valuable antagonists of endothelin.
(§2) The following cultured cells were used in binding experiments: rabbit renal artery vascular smooth muscle cells (ERBA-A), Ltk-cells expressing recombinant human ETA R (HERBA-A), and CHO-K1 cells expressing recombinant human ETB R (HERBA-B).
(§3) Membranes were prepared from cultured cells by lysing cells in cold lysis buffer (5 mM HEPES, 2 mM EDTA, pH 7.4) and homogenizing with a Dounce "A" homogenizer. The homogenate was centrifuged at 30,000× g for 20 minutes at 4° C. Membrane pellets were suspended in cold buffer containing 20 mM Tris, 2 mM EDTA, 200 μM Pefabloc, 10 μM phosphoramidon, 10 μM leupeptin, 1 μM pepstatin at pH 7.4 and frozen at -80° C. until use. Membranes were thawed and homogenized with a Brinkmann Polytron then diluted in tissue buffer containing 20 mM Tris, 2 mM EDTA, 200 μM Pefabloc, and 100 μM bacitracin (pH 7.4). Radioligand and competing ligands were prepared in binding buffer containing 20 mM Tris, 2 mM EDTA, and 0.1% BSA.
(§4) Competing binding assays were initiated by combining membranes, [125I]-ET-1 (40 pM) and the competing ligand in a final volume of 250 μL and incubating for 2 hours at 37° C. The assay was terminated by filtration over Whatman GF/B filters which were presoaked with 50 mM Tris, pH 7.4 containing 0.2% BSA and 100 μM bacitracin. Nonspecific binding was defined as binding in the presence of 100 nM ET-1.

[4] = molecular target: T2, recombinant human ETB R (Homo sapiens, UniProt P24530); type: binding; details: [125I]-ET-1 40 pM, 2 hours at 37° C.; read-out: HERBAB IC50
T2 construct: expressed in transfected cells; host or cells: CHO-K1 cells
T2 sequence (P24530 27-442): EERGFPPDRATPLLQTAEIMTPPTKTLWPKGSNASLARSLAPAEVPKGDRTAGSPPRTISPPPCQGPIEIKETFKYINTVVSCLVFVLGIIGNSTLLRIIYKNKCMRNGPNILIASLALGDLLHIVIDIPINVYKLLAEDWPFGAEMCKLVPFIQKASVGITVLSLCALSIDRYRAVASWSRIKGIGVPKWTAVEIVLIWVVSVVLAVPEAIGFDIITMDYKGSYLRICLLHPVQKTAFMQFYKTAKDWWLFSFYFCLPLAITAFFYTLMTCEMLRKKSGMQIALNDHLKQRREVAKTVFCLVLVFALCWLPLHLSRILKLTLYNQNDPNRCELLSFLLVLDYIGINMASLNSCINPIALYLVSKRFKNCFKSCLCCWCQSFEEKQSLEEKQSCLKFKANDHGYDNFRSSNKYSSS
Experimental: as §1, §2, §3, §4

[5] = molecular target: T3, ETA (Oryctolagus cuniculus, UniProt A5A8K3); assay: AAR: inhibition of ET-1 stimulated arachidonic acid release in cultured rabbit renal artery vascular smooth muscle cells; type: cell-based; details: 0.3 nM ET-1, 30 minutes
T3 construct: cultured rabbit renal artery vascular smooth muscle cells; endogenous in cells; host or cells: cultured rabbit renal artery vascular smooth muscle cells
T3 sequence (A5A8K3 21-427): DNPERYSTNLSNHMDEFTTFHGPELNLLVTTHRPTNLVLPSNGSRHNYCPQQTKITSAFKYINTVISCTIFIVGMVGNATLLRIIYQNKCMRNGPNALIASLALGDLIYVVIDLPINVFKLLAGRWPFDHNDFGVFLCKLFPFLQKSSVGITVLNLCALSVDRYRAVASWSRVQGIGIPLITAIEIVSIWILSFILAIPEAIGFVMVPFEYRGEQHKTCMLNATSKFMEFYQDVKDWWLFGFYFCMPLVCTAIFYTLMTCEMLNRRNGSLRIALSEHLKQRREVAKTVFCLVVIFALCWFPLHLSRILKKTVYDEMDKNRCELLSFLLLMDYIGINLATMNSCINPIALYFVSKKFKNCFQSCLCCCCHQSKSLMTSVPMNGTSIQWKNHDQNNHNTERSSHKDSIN
Excerpt: as §1

[6] = test system: cerebral vasospasm following SAH; details: rat; cited from earlier work
[7] = test system: acute renal ischemia; details: rats; cited from earlier work
[8] = test system: subarachnoid hemorrhage; details: rats; cited from earlier work
[9] = test system: basilar artery; details: after 7 days, canine two-hemorrhage model of SAH; cited from earlier work
[10] = molecular target: T3, ETA; assay: VERA-A: antagonism of ET-1 stimulated vasoconstriction in the rabbit femoral artery; details: rabbit femoral artery rings, antagonist added 30 minutes before ET-1; read-out: VERAA pA2 (converted)
[11] = test system: ischemia-induced acute renal failure; details: anesthetized dogs (title of citation); cited from earlier work
[12] = test system: cerebral vasospasm following SAH; details: rabbit; cited from earlier work
[13] = test system: allergic sheep; details: cited from earlier work
[14] = test system: cerebral vasospasm following subarachnoid hemorrhage; details: in vivo; cited from earlier work

IC50 [3] | IC50 [4] | Compound | other results
 |  | COc1ccccc1Oc1c(NS(=O)(=O)c2ccc(C(C)(C)C)cc2)nc(-c2ncccn2)nc1OCCO [Bosentan] | reduction of basilar artery cross-sectional area compared to sham rabbits [1]: 36±7%; treatment of congestive heart failure [2]: useful in the treatment of congestive heart failure
55 nM | 0.38 µM | O=C(O)C1=C(c2ccc3c(c2)OCO3)c2ccccc2S(=O)(=O)N1Cc1cc2c(cc1Cl)OCO2 [Example 31, 4-Benzo[1,3]dioxol-5-yl-2-(6-chloro-benzo[1,3]dioxol-5-ylmethyl)-1,1-dioxo-1,2-dihydro-1λ^6-benzo[e][1,2]thiazine-3-carboxylic acid] | IC50 [5]: 1300 nM
 |  | COc1cccc(Oc2c(NS(=O)(=O)c3ccc(C(C)(C)C)cc3)ncnc2OCCO)c1 [Ro 46-2005] | prevention of early cerebral vasospasm following SAH [6]: prevent early cerebral vasospasm following SAH; effect in model of acute renal ischemia [7]: effective; effect in model of subarachnoid hemorrhage [8]: effective
 |  | FR 139317 | inhibition of vasoconstriction of the basilar artery [9]: significantly inhibited the vascoconstriction of the basilar artery
300 nM | 4.7 µM | COc1cc(CN2C(C(=O)O)=C(c3ccc4c(c3)OCO4)c3ccccc3S2(=O)=O)cc2c1OCO2 [Example 32, 4-Benzo[1,3]dioxol-5-yl-2-(7-methoxy-benzo[1,3]dioxol-5-ylmethyl)-1,1-dioxo-1,2-dihydro-1λ^6-benzo[e][1,2]thiazine-3-carboxylic acid] | 
11000 nM | > 25 µM | COc1cc(C2=C(C(=O)O)N(Cc3ccc4c(c3)OCO4)S(=O)(=O)c3ccccc32)cc(OC)c1OC [Example 24, 2-Benzo[1,3]dioxol-5-ylmethyl-1,1-dioxo-4-(3,4,5-trimethoxyphenyl)-1,2-dihydro-1λ^6-benzo[e][1,2]thiazine-3-carboxylic acid] | 
66 nM | 5.4 µM | O=C(O)C1=C(Sc2ccc3c(c2)OCO3)c2ccccc2S(=O)(=O)N1Cc1ccc2c(c1)OCO2 [Example 42, 2-Benzo[1,3]dioxol-5-ylmethyl-4-(benzo[1,3]dioxol-5-ylsulfanyl)-1,1-dioxo-1,2-dihydro-1λ^6-benzo[e][1,2]thiazine-3-carboxylic acid] | IC50 [5]: 1200 nM; Kb [10]: > 10 µM
 |  | CCCOc1ccc2c(c1)[C@@H](c1ccc(OC)cc1OCC(=O)O)[C@H](C(=O)O)[C@H]2c1ccc2c(c1)OCO2 [SB 209670] | effect in ischemia-induced acute renal failure [11]: beneficial in ischemia-induced acute renal failure
230 nM | 8.2 µM | COc1ccc(SC2=C(C(=O)O)N(Cc3ccc4c(c3)OCO4)S(=O)(=O)c3ccccc32)cc1OC [Example 48, 2-Benzo[1,3]dioxol-5-ylmethyl-4-(3,4-dimethoxyphenylsulfanyl)-1,1-dioxo-1,2-dihydro-1λ^6-benzo[e][1,2]thiazine-3-carboxylic acid] | 
 |  | CC(C)C[C@@H]1NC(=O)[C@@H](C(C)C)NC(=O)[C@@H]2CCCN2C(=O)[C@@H](CC(=O)O)NC(=O)[C@@H](Cc2c[nH]c3ccccc23)NC1=O [BQ-123] (cyclo(L[dW][dD]P[dV])) | prevention of early cerebral vasospasm following SAH [6]: prevents early cerebral vasospasm following SAH; prevention of early cerebral vasospasm following SAH [12]: prevents early cerebral vasospasm following SAH; block of ET-1-induced bronchoconstriction and tracheal smooth muscle contraction [13]: block ET-1-induced bronchoconstriction and tracheal smooth muscle contraction; prevention of early cerebral vasospasm following subarachnoid hemorrhage [14]: prevent early cerebral vasospasm following subarachnoid hemorrhage
300 nM | 3.1 µM | O=C(O)C1=C(c2ccc3c(c2)OCO3)c2ccccc2S(=O)(=O)N1Cc1ccc2c(c1)OCO2 [Example 26, 4-Benzo[1,3]dioxol-5-yl-2-benzo[1,3]dioxol-5-ylmethyl-1,1-dioxo-1,2-dihydro-1λ^6-benzo[e][1,2]thiazine-3-carboxylic acid] | 
100 nM | 25 µM | CN1C(C(=O)O)=C(Sc2ccc3c(c2)OCO3)c2ccccc2S1(=O)=O [Example 41, 4-(benzo[1,3]dioxol-5-ylsulfanyl)-2-methyl-1,1-dioxo-1,2-dihydro-1λ^6-benzo[e][1,2]thiazine-3-carboxylic acid] | 
1700 nM | > 25 µM | CN1C(C(=O)O)=C(c2ccc3c(c2)OCO3)c2ccccc2S1(=O)=O [Example 25, 4-Benzo[1,3]dioxol-5-yl-2-methyl-1,1-dioxo-1,2-dihydro-1λ^6-benzo[e][1,2]thiazine-3-carboxylic acid] | 
